# Measurements reported in US20100184751A1, “HETEROCYCLIC COMPOUNDS FOR THE TREATMENT OF TUBERCULOSIS” (priority 2007, published 2010).
# Where a name gives a salt, the structure may show the parent alone. Read-outs that look alike come from different tables or passages of the source.
# Test system: Mycobacterium tuberculosis H37Rv
# Test: Mycobacterium tuberculosis H37Rv inhibition assay (resazurin MIC)
# Format: cell-based
# Settings: ATCC 25618 / H37Rv, read-out: MIC value
# [1] = 144 h, H37Rv strain (ATCC25618), Middlebrook 7H9, 37° C., six days, resazurin fluorescence after 48 hours
# [2] = H37Rv strain (ATCC25618), Middlebrook 7H9, 37° C., six days, resazurin fluorescence after 48 hours
SMILES,MIC [1] [µg/mL],MIC [2] [µg/mL],MIC (144 h) [µg/mL],MIC [µg/mL]
"O=C1CSc2ccc(CNC3CCN(C[C@]4(O)Cn5c(=O)ccc6ncc(F)c4c65)CC3)nc2N1 [Example 6, (4S)-3-Fluoro-4-hydroxy-4-[(4-{[(3-oxo-3,4-dihydro-2H-pyrido[3,2-b][1,4]thiazin-6-yl)methyl]amino}-1-piperidinyl)methyl]-4,5-dihydro-7H-pyrrolo[3,2,1-de]-1,5-naphthyridin-7-one (E1 Enantiomer Series) Dihydrochloride]",≤ 4,≤ 1.7,,
"O=c1ccc2ncc(F)c3c2n1C[C@@]3(O)CN1CCC(NCc2ccc3nonc3c2)CC1 [Example 48, (4S)-4-({4-[(2,1,3-benzoxadiazol-5-ylmethyl)amino]-1-piperidinyl}methyl)-3-fluoro-4-hydroxy-4,5-dihydro-7H-pyrrolo[3,2,1-de]-1,5-naphthyridin-7-one]",≤ 4,≤ 1.7,,
"O=C1COc2cnc(CNC3CCN(C[C@]4(O)Cn5c(=O)ccc6ncc(F)c4c65)CC3)nc2N1 [Example 70, (4S)-3-fluoro-4-hydroxy-4-[(4-{[(7-oxo-6,7-dihydro-1H-pyrimido[5,4-b][1,4]oxazin-2-yl)methyl]amino}-1-piperidinyl)methyl]-4,5-dihydro-7H-pyrrolo[3,2,1-de]-1,5-naphthyridin-7-one Dihydrochloride]",,,≤ 4,≤ 1.7
"O=C1COc2cc(Cl)c(CNC3CCN(C[C@]4(O)Cn5c(=O)ccc6ncc(F)c4c65)CC3)nc2N1 [Example 40, (4S)-4-[(4-{[(7-chloro-3-oxo-3,4-dihydro-2H-pyrido[3,2-b][1,4]oxazin-6-yl)methyl]amino}-1-piperidinyl)methyl]-3-fluoro-4-hydroxy-4,5-dihydro-7H-pyrrolo[3,2,1-de]-1,5-naphthyridin-7-one]",≤ 4,≤ 1.7,,
"O=C1COc2ccc(CNC3CCN(CC4(F)Cn5c(=O)ccc6ncc(F)c4c65)CC3)nc2N1 (stereo not drawn) [Example 32, 3,4-Difluoro-4-[(4-{[(3-oxo-3,4-dihydro-2H-pyrido[3,2-b][1,4]oxazin-6-yl)methyl]amino}-1-piperidinyl)methyl]-4,5-dihydro-7H-pyrrolo[3,2,1-de]-1,5-naphthyridin-7-one Dihydrochloride (E1 Enantiomer)]",,,≤ 4,≤ 1.7
"O=c1ccc2ncc(F)c3c2n1C[C@@]3(O)CN1CCC(NCc2cnc3ccccc3c2)CC1 [Example 37, (4S)-3-fluoro-4-hydroxy-4-({4-[(3-quinolinylmethyl)amino]-1-piperidinyl}methyl)-4,5-dihydro-7H-pyrrolo[3,2,1-de]-1,5-naphthyridin-7-one]",≤ 4,≤ 1.7,,
"O=C1CSc2ccc(CNC3CCN(CC4(O)Cn5c(=O)ccc6ncc(Cl)c4c65)CC3)nc2N1 (racemic) [Example 14, (4R/S)-3-Chloro-4-hydroxy-4-[(4-{[(3-oxo-3,4-dihydro-2H-pyrido[3,2-b][1,4]thiazin-6-yl)methyl]amino}-1-piperidinyl)methyl]-4,5-dihydro-7H-pyrrolo[3,2,1-de]-1,5-naphthyridin-7-one Dihydrochloride]",≤ 4,,,≤ 1.7
"O=c1ccc2ncc(F)c3c2n1C[C@@]3(O)CN1CCC(NCc2ccc3nsnc3c2)CC1 [Example 35, (4S)-4-({4-[(2,1,3-benzothiadiazol-5-ylmethyl)amino]-1-piperidinyl}methyl)-3-fluoro-4-hydroxy-4,5-dihydro-7H-pyrrolo[3,2,1-de]-1,5-naphthyridin-7-one]",≤ 4,≤ 1.7,,
"O=c1c(F)cc2ncc(F)c3c2n1C[C@@]3(O)CN1CCC(NCc2cc3c(cn2)OCCO3)CC1 [Example 20A, (4S)-4-({4-[(2,3-Dihydro[1,4]dioxino[2,3-c]pyridin-7-ylmethyl)amino]-1-piperidinyl}methyl)-3,8-difluoro-4-hydroxy-4,5-dihydro-7H-pyrrolo[3,2,1-de]-1,5-naphthyridin-7-one (E1 enantiomer series)]",≤ 4,,,
"O=c1ccc2ncc(F)c3c2n1C[C@@]3(O)CN1CCC(NCc2cc3c(cn2)SCCO3)CC1 [Example 23A, Dihydrochloride]",≤ 4,≤ 1.7,,
"O=c1ccc2ncc(F)c3c2n1C[C@@]3(O)CN1CCC(NCc2cc3c(cn2)OCCO3)CC1 [Example 1, (4S)-4-({4-[(2,3-Dihydro[1,4]dioxino[2,3-c]pyridin-7-ylmethyl)amino]-1-piperidinyl}methyl)-3-fluoro-4-hydroxy-4,5-dihydro-7H-pyrrolo[3,2,1-de]-1,5-naphthyridin-7-one (E1 Enantiomer Series) Hydrochloride]",≤ 4,,,
"O=c1ccc2ncc(Cl)c3c2n1CC3(O)CN1CCC(NCc2cc3c(cn2)OCS3)CC1 (racemic) [Example 15, (4R/S)-3-Chloro-4-hydroxy-4-({4-[([1,3]oxathiolo[5,4-c]pyridin-6-ylmethyl)amino]-1-piperidinyl}methyl)-4,5-dihydro-7H-pyrrolo[3,2,1-de]-1,5-naphthyridin-7-one Dihydrochloride]",≤ 4,,,
"N#Cc1cc(CNC2CCN(C[C@]3(O)Cn4c(=O)ccc5ncc(F)c3c54)CC2)cc2c1OCC2 [Example 41, 5-{[(1-{[(4S)-3-fluoro-4-hydroxy-7-oxo-4,5-dihydro-7H-pyrrolo[3,2,1-de]-1,5-naphthyridin-4-yl]methyl}-4-piperidinyl)amino]methyl}-2,3-dihydro-1-benzofuran-7-carbonitrile]",≤ 4,≤ 1.7,,
"O=c1ccc2ncc(Cl)c3c2n1CC3(O)CN1CCC(NCc2cc3c(cn2)OCCC3)CC1 (racemic) [Example 13, (4R/S)-3-Chloro-4-({4-[(3,4-dihydro-2H-pyrano[2,3-c]pyridin-6-ylmethyl)amino]-1-piperidinyl}methyl)-4-hydroxy-4,5-dihydro-7H-pyrrolo[3,2,1-de]-1,5-naphthyridin-7-one Dihydrochloride]",≤ 4,,,
"O=c1ccc2ncc(F)c3c2n1C[C@@]3(O)CN1CCC(NCc2cc3cc(F)cc(F)c3[nH]2)CC1 [Example 54, (4S)-4-[(4-{[(5,7-difluoro-1H-indol-2-yl)methyl]amino}-1-piperidinyl)methyl]-3-fluoro-4-hydroxy-4,5-dihydro-7H-pyrrolo[3,2,1-de]-1,5-naphthyridin-7-one]",≤ 4,≤ 1.7,,
"O=c1ccc2ncc(F)c3c2n1C[C@@]3(O)CN1CCC(NCc2ccc3c(c2)OCCO3)CC1 [Example 3A, (4S)-4-({4-[(2,3-Dihydro-1,4-benzodioxin-6-ylmethyl)amino]-1-piperidinyl}methyl)-3-fluoro-4-hydroxy-4,5-dihydro-7H-pyrrolo[3,2,1-de]-1,5-naphthyridin-7-one (E1 Enantiomer Series) Dihydrochloride]",≤ 4,≤ 1.7,,
"O=c1ccc2ncc(F)c3c2n1C[C@@]3(O)CN1CCC(NCc2cc3c(nn2)SCCO3)CC1 [Example 19, (4S)-4-({4-[(6,7-Dihydro[1,4]oxathiino[3,2-c]pyridazin-3-ylmethyl)amino]-1-piperidinyl}methyl)-3-fluoro-4-hydroxy-4,5-dihydro-7H-pyrrolo[3,2,1-de]-1,5-naphthyridin-7-one (E1 Enantiomer Series) Dihydrochloride]",≤ 4,≤ 1.7,,
"O=c1ccc2ncc(F)c3c2n1CC3(F)CN1CCC(NCc2cc3c(nn2)OCCC3)CC1 (stereo not drawn) [Example 33, 4-({4-[(6,7-Dihydro-5H-pyrano[2,3-c]pyridazin-3-ylmethyl)amino]-1-piperidinyl}methyl)-3,4-difluoro-4,5-dihydro-7H-pyrrolo[3,2,1-de]-1,5-naphthyridin-7-one Dihyclrochloride (E1 Enantiomer)]",≤ 4,,,
"O=c1ccc2ncc(F)c3c2n1C[C@@]3(O)CN1CCC(NCc2ccc3cccc(O)c3n2)CC1 [Example 49, (4S)-3-fluoro-4-hydroxy-4-[(4-{[(8-hydroxy-2-quinolinyl)methyl]amino}-1-piperidinyl)methyl]-4,5-dihydro-7H-pyrrolo[3,2,1-de]-1,5-naphthyridin-7-one]",≤ 4,,,
"O=c1ccc2ncc(F)c3c2n1C[C@@]3(O)CN1CCC(NCc2ncc3c(n2)OCCO3)CC1 [Example 69, (4S)-4-({4-[6,7-dihydro[1,4]dioxino[2,3-d]pyrimidin-2-ylmethyl]amino]-1-piperidinyl}methyl)-3-fluoro-4-hydroxy-4,5-dihydro-7H-pyrrolo[3,2,1-de]-1,5-napthyridin-7-one (E1 Enantiomer Series) Dihydrochloride]",≤ 4,,,
"O=c1ccc2ncc(F)c3c2n1C[C@@]3(O)CN1CCC(NCc2ccc3ccccc3n2)CC1 [Example 51, (4S)-3-fluoro-4-hydroxy-4-({4-[(2-quinolinylmethyl)amino]-1-piperidinyl}methyl)-4,5-dihydro-7H-pyrrolo[3,2,1-de]-1,5-naphthyridin-7-one]",≤ 4,,,
"O=c1ccc2ncc(F)c3c2n1C[C@@]3(O)CN1CCC(NCc2ccc3snnc3c2)CC1 [Example 46, (4S)-4-({4-[(1,2,3-benzothiadiazol-5-ylmethyl)amino]-1-piperidinyl}methyl)-3-fluoro-4-hydroxy-4,5-dihydro-7H-pyrrolo[3,2,1-de]-1,5-naphthyridin-7-one]",≤ 4,≤ 1.7,,
"O=c1ccc2ncc(F)c3c2n1C[C@@]3(O)CN1CCC(NCc2cc3c(cn2)OCS3)CC1 [Example 10B, (4S)-3-Fluoro-4-hydroxy-4-({4-[([1,3]oxathiolo[5,4-c]pyridin-6-ylmethyl)amino]-1-piperidinyl}methyl)-4,5-dihydro-7H-pyrrolo[3,2,1-de]-1,5-naphthyridin-7-one (E1 enantiomer series) hydrochloride]",≤ 4,≤ 1.7,,
"O=c1ccc2ncc(F)c3c2n1C[C@@]3(O)CN1CCC(NCc2ccc3scnc3c2)CC1 [Example 42, (4S)-4-({4-[(1,3-benzothiazol-5-ylmethyl)amino]-1-piperidinyl}methyl)-3-fluoro-4-hydroxy-4,5-dihydro-7H-pyrrolo[3,2,1-de]-1,5-naphthyridin-7-one]",≤ 4,,,
